# Experimental data: PubChem BioAssay AID1963968 (Molecular Pharmacology Branch, DTP, NCI, 2024)
# Test system: 945468-187-T-J3-PDC spheroids with HUVEC/MSC, viability
# Experiment: Anticancer human tumor 945468-187-T-J3-PDC patient-derived rectal carcinoma cell line growth inhibition [PI3K]
# Conditions: for IC50: curve of first compound; for viability, T/C: stronger effect = lower value
# Summary of the method: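 Spheroid viability read-out. Co-cultures contained the tumor line plus HUVEC and human MSCs. Each agent was paired with a PI3K inhibitor (inavolisib, alpelisib, duvelisib, copanlisib) across half-log dilutions starting at clinical Cmax, or at 10 microM when Cmax was unknown.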
# [1] = second compound 0.0316 µM, first compound 0.0316 µM
# [2] = second compound 0.0316 µM, first compound 0.1 µM
# [3] = second compound 0.0316 µM, first compound 0.316 µM
# [4] = second compound 0.0316 µM, first compound 1 µM
# [5] = second compound 0.0316 µM, first compound 3.16 µM
# [6] = second compound 0.0316 µM, first compound 10 µM
# [7] = second compound 0.1 µM, first compound 0.0316 µM
# [8] = second compound 0.1 µM, first compound 0.1 µM
# [9] = second compound 0.1 µM, first compound 0.316 µM
# [10] = second compound 0.1 µM, first compound 1 µM
# [11] = second compound 0.1 µM, first compound 3.16 µM
# [12] = second compound 0.1 µM, first compound 10 µM
# [13] = second compound 0.316 µM, first compound 0.0316 µM
# [14] = second compound 0.316 µM, first compound 0.1 µM
# [15] = second compound 0.316 µM, first compound 0.316 µM
# [16] = second compound 0.316 µM, first compound 1 µM
# [17] = second compound 0.316 µM, first compound 3.16 µM
# [18] = second compound 0.316 µM, first compound 10 µM
# [19] = second compound 1 µM, first compound 0.0316 µM
# [20] = second compound 1 µM, first compound 0.1 µM
# [21] = second compound 1 µM, first compound 0.316 µM
# [22] = second compound 1 µM, first compound 1 µM
# [23] = second compound 1 µM, first compound 3.16 µM
# [24] = second compound 1 µM, first compound 10 µM
# [25] = second compound 0.00316 µM, first compound 0.0316 µM
# [26] = second compound 0.00316 µM, first compound 0.1 µM
# [27] = second compound 0.00316 µM, first compound 0.316 µM
# [28] = second compound 0.00316 µM, first compound 1 µM
# [29] = second compound 0.00316 µM, first compound 3.16 µM
# [30] = second compound 0.00316 µM, first compound 10 µM
# [31] = second compound 0.01 µM, first compound 0.0316 µM
# [32] = second compound 0.01 µM, first compound 0.1 µM
# [33] = second compound 0.01 µM, first compound 0.316 µM
# [34] = second compound 0.01 µM, first compound 1 µM
# [35] = second compound 0.01 µM, first compound 3.16 µM
# [36] = second compound 0.01 µM, first compound 10 µM
# 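Also: spheroids exposed to agents for 7 days before viability read.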
# 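For viability, T/C in this document: 100% = DMSO vehicle control viability.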
smiles,measurement,setting,value
C=CC(=O)N1CCN(c2nc(=O)n(-c3c(C)ccnc3C(C)C)c3nc(-c4c(O)cccc4F)c(F)cc23)C(C)C1 (stereo unspecified) + CC(Nc1ncnc2nc[nH]c12)c1cc2cccc(Cl)c2c(=O)n1-c1ccccc1,IC50,second compound 0.0316 µM,> 10 µM
same,IC50,second compound 0.1 µM,> 10 µM
same,IC50,second compound 0.316 µM,> 10 µM
same,IC50,second compound 1 µM,> 10 µM
same,IC50,second compound 3.16 µM,> 10 µM
same,IC50,second compound 10 µM,> 10 µM
same,"viability, T/C",[1],91.9%
same,"viability, T/C",[2],92.9%
same,"viability, T/C",[3],104%
same,"viability, T/C",[4],96.4%
same,"viability, T/C",[5],96.6%
same,"viability, T/C",[6],98.3%
same,"viability, T/C",[7],94.7%
same,"viability, T/C",[8],103%
same,"viability, T/C",[9],100%
same,"viability, T/C",[10],92.6%
same,"viability, T/C",[11],107%
same,"viability, T/C",[12],95.9%
same,"viability, T/C",[13],94.8%
same,"viability, T/C",[14],92.9%
same,"viability, T/C",[15],88.5%
same,"viability, T/C",[16],91.6%
same,"viability, T/C",[17],106%
same,"viability, T/C",[18],99.3%
same,"viability, T/C",[19],99.3%
same,"viability, T/C",[20],105%
same,"viability, T/C",[21],94.8%
same,"viability, T/C",[22],94.1%
same,"viability, T/C",[23],107%
same,"viability, T/C",[24],95.8%
same,"viability, T/C","second compound 3.16 µM, first compound 0.0316 µM",90.5%
same,"viability, T/C","second compound 3.16 µM, first compound 0.1 µM",99.6%
same,"viability, T/C","second compound 3.16 µM, first compound 0.316 µM",101%
same,"viability, T/C","second compound 3.16 µM, first compound 1 µM",110%
same,"viability, T/C","second compound 3.16 µM, first compound 3.16 µM",97.2%
same,"viability, T/C","second compound 3.16 µM, first compound 10 µM",93.4%
same,"viability, T/C","second compound 10 µM, first compound 0.0316 µM",104%
same,"viability, T/C","second compound 10 µM, first compound 0.1 µM",91.1%
same,"viability, T/C","second compound 10 µM, first compound 0.316 µM",97.9%
same,"viability, T/C","second compound 10 µM, first compound 1 µM",97.6%
same,"viability, T/C","second compound 10 µM, first compound 3.16 µM",116%
same,"viability, T/C","second compound 10 µM, first compound 10 µM",93.9%
CC(Cn1ccc(-c2ccc(C#N)c(Cl)c2)n1)NC(=O)c1cc(C(C)O)[nH]n1 (stereo unspecified) + COc1c(OCCCN2CCOCC2)ccc2c3n(c(=NC(=O)c4cnc(N)nc4)nc12)CCN3,IC50,second compound 0.00316 µM,> 10 µM
same,IC50,second compound 0.01 µM,> 10 µM
same,IC50,second compound 0.0316 µM,> 10 µM
same,IC50,second compound 0.1 µM,< 0.0316 µM
same,IC50,second compound 0.316 µM,< 0.0316 µM
same,IC50,second compound 1 µM,< 0.0316 µM
same,"viability, T/C",[25],96.6%
same,"viability, T/C",[26],92.7%
same,"viability, T/C",[27],95.7%
same,"viability, T/C",[28],88.5%
same,"viability, T/C",[29],93.9%
same,"viability, T/C",[30],92.3%
same,"viability, T/C",[31],93%
same,"viability, T/C",[32],96.8%
same,"viability, T/C",[33],103%
same,"viability, T/C",[34],94.8%
same,"viability, T/C",[35],98.6%
same,"viability, T/C",[36],96.5%
same,"viability, T/C",[1],107%
same,"viability, T/C",[2],81%
same,"viability, T/C",[3],95.9%
same,"viability, T/C",[4],95.7%
same,"viability, T/C",[5],109%
same,"viability, T/C",[6],88.2%
same,"viability, T/C",[7],49.1%
same,"viability, T/C",[8],50%
same,"viability, T/C",[9],49.1%
same,"viability, T/C",[10],48.9%
same,"viability, T/C",[11],48.2%
same,"viability, T/C",[12],54.7%
same,"viability, T/C",[13],23.3%
same,"viability, T/C",[14],24.2%
same,"viability, T/C",[15],18.5%
same,"viability, T/C",[16],21.6%
same,"viability, T/C",[17],27.5%
same,"viability, T/C",[18],23.1%
same,"viability, T/C",[19],18.8%
same,"viability, T/C",[20],15.6%
same,"viability, T/C",[21],16.6%
same,"viability, T/C",[22],15.2%
same,"viability, T/C",[23],18.7%
same,"viability, T/C",[24],16.1%
CC(C)NCC(C(=O)N1CCN(c2ncnc3c2C(C)CC3O)CC1)c1ccc(Cl)cc1 (stereo unspecified) + CC(Nc1ccc2c(c1)OCCn1cc(N3C(=O)OCC3C(F)F)nc1-2)C(N)=O,IC50,second compound 0.00316 µM,8.44 µM
same,IC50,second compound 0.01 µM,> 10 µM
same,IC50,second compound 0.0316 µM,6.85 µM
same,IC50,second compound 0.1 µM,2.81 µM
same,IC50,second compound 0.316 µM,0.91 µM
same,IC50,second compound 1 µM,1.38 µM
same,"viability, T/C",[25],93.8%
same,"viability, T/C",[26],93.9%
same,"viability, T/C",[27],103%
same,"viability, T/C",[28],91.6%
same,"viability, T/C",[29],58.6%
same,"viability, T/C",[30],48.5%
same,"viability, T/C",[31],111%
same,"viability, T/C",[32],103%
same,"viability, T/C",[33],104%
same,"viability, T/C",[34],96.7%
same,"viability, T/C",[35],54.9%
same,"viability, T/C",[36],59.2%
same,"viability, T/C",[1],93.7%
same,"viability, T/C",[2],91.8%
same,"viability, T/C",[3],94.1%
same,"viability, T/C",[4],90.9%
same,"viability, T/C",[5],55.6%
same,"viability, T/C",[6],47.3%
same,"viability, T/C",[7],101%
same,"viability, T/C",[8],93.4%
same,"viability, T/C",[9],87%
same,"viability, T/C",[10],76.4%
same,"viability, T/C",[11],45%
same,"viability, T/C",[12],31.5%
same,"viability, T/C",[13],101%
same,"viability, T/C",[14],89.3%
same,"viability, T/C",[15],62.7%
same,"viability, T/C",[16],49.6%
same,"viability, T/C",[17],39%
same,"viability, T/C",[18],29.3%
same,"viability, T/C",[19],62.8%
same,"viability, T/C",[20],70.4%
same,"viability, T/C",[21],57.8%
same,"viability, T/C",[22],57.3%
same,"viability, T/C",[23],34.1%
same,"viability, T/C",[24],26.7%
